What was measured:
Type in all cases: cell-based, Human
[1] = tested on: H3K79me2; assay: H3K79me2 immunoblot in EOL-1 cells
Protocol: Nuclei were collected by centrifugation at […] for 5 minutes at 4° C. and washed once in Tris/EDTA buffer (pH 7.4). Supernatant was removed and histones extracted for one hour with 60 μl 0.4 N cold sulfuric acid. Extracts were clarified by centrifugation at 10,000 g for 10 minutes at 4° C. and transferred to a fresh microcentrifuge tube containing 600 μl ice cold acetone. Histones were precipitated at −20° C. for 2 hours, pelleted by centrifugation at 10,000 g for 10 minutes and resuspended in 60 μl distilled water (DI water). Total protein of the acid extracts was assessed using a bicinchoninic acid (BCA) protein quantification assay with a bovine serum albumin (BSA) standard (Pierce Biotechnology).
For immunoblot analysis of the H3K79me2 inhibition by DOT1L inhibitor, exponentially growing EOL-1 cells were seeded at 2×10^5 cells/mL and incubated in the presence of increasing concentrations of DOT1L inhibitor for 4 days. […] Signal intensities specific for each methyl-specific antibody was quantified using Odyssey software and normalized to that of the appropriate total histone control signal on the same filter by dividing the methyl-specific antibody signal intensity by the total histone control signal intensity.
Inhibition of methylation of H3K79 was assessed after 4 days of treatment of DOT1L compounds in exponentially growing EOL-1 cells. […]

[2] = tested on: HOXA9; assay: Quantitative real-time PCR, HOXA9 expression after DOT1L inhibitor treatment; conditions: up to 10 μM for 6 days, qPCR
Protocol: (§1) Exponentially growing EOL-1 cells were plated in a 12 well plate at 2×10^5 cells/mL. […] On day 4, cells were maintained in log phase culture by reseeding at 5×10^5 cells/mL and compound was replenished. At day 6 cells were washed twice with PBS and pelleted by centrifugation at 200×g. Cell pellets were lysed in 300 μL RLT buffer (Qiagen) and total RNA was isolated using the RNeasy total RNA isolation kit (Qiagen 74106). Total RNA (1 μg) was reverse transcribed using a high capacity cDNA reverse transcription kit (Applied Biosystems 4368813). RNA isolation and cDNA synthesis were carried out according to the manufacturer's protocol. Predesigned labeled primer and probe sets for HOXA9 (Hs00365956), MEIS1 (Hs00180020) and FLT3 (Hs00975659) were purchased from Applied Biosystems. Quantitative real-time PCR (qPCR) reactions contained 50 ng cDNA, 1× labeled primer and probe set, and 1× Taqman universal PCR master mix (Applied Biosystems 4304437). Samples were run on a 7900 HT Fast Real Time PCR machine (Applied Biosystems 4351405) with cycling conditions of 2 min 50° C., 10 min 95° C., 40 cycles at 15 sec 95° C. and 1 min 60° C. […] Percent of DMSO control was calculated with the equation (2^−ΔΔCT)*100 where the ΔΔCT is the difference between normalized target gene and DMSO control (ΔCT sample−ΔCT control=ΔΔCT). […]

[3] = tested on: EOL-1 cells; assay: EOL-1 cell growth and viability assay (Guava Viacount, 11 days)
Protocol: Human leukemia cell line EOL-1 (Catalog # ACC-386) was purchased from DSMZ and were grown in Roswell Park Memorial Institute medium (RPMI) with 10% Fetal Bovine Serum (FBS). Cells were kept in log growth as outlined in the technical data sheet provided by the vendor.
Exponentially growing EOL-1 cells were plated in 96-well plates at a density of 3×10^4 viable cells/well. Each treatment was seeded in triplicate with a final well volume of 150 μLs. Cells were incubated with increasing concentrations of DOT1L inhibitor up to 50 μM. Viable cell number was determined every 3-4 days for 11 days using the Guava Viacount assay (Millipore #4000-0040) and analyzed on a Guava EasyCyte Plus instrument according to the manufacturer's protocol. On the days of cell counts, growth media and inhibitor were replenished and cells maintained in log phase culture by reseeding at a density of 5×10^4 viable cells/well. Total cell number was expressed as split-adjusted viable cells per well. For each cell inhibitor IC50 values were determined from concentration-dependence curves at day 11. […]
The effect of DOT1L inhibitors on leukemia cell growth and viability was investigated. […] The number of viable cells was determined every 3-4 days for 11 days. […] Total cell number was expressed as split-adjusted viable cells per well. […]

[4] = tested on: FLT3; assay: Quantitative real-time PCR, FLT3 expression after DOT1L inhibitor treatment; conditions: up to 10 μM for 6 days, qPCR
Protocol: as §1

[5] = tested on: MEIS1; assay: Quantitative real-time PCR, MEIS1 expression after DOT1L inhibitor treatment; conditions: up to 10 μM for 6 days, qPCR
Protocol: (§2) Exponentially growing EOL-1 cells were plated in a 12 well plate at 2×10^5 cells/mL. […] On day 4, cells were maintained in log phase culture by reseeding at 5×10^5 cells/mL and compound was replenished. At day 6 cells were washed twice with PBS and pelleted by centrifugation at 200×g. Cell pellets were lysed in 300 μL RLT buffer (Qiagen) and total RNA was isolated using the RNeasy total RNA isolation kit (Qiagen 74106). Total RNA (1 μg) was reverse transcribed using a high capacity cDNA reverse transcription kit (Applied Biosystems 4368813). RNA isolation and cDNA synthesis were carried out according to the manufacturer's protocol. Predesigned labeled primer and probe sets for HOXA9 (Hs00365956), MEIS1 (Hs00180020) and FLT3 (Hs00975659) were purchased from Applied Biosystems. Quantitative real-time PCR (qPCR) reactions contained 50 ng cDNA, 1× labeled primer and probe set, and 1× Taqman universal PCR master mix (Applied Biosystems 4304437). Samples were run on a 7900 HT Fast Real Time PCR machine (Applied Biosystems 4351405) with cycling conditions of 2 min 50° C., 10 min 95° C., 40 cycles at 15 sec 95° C. and 1 min 60° C. […] Percent of DMSO control was calculated with the equation (2^−ΔΔCT)*100 where the ΔΔCT is the difference between normalized target gene and DMSO control (ΔCT sample−ΔCT control=ΔΔCT).

[6] = tested on: DOT1L; assay: Quantitative real-time PCR, DOT1L expression after DOT1L inhibitor treatment; conditions: up to 10 μM for 6 days, qPCR
Protocol: as §2

SMILES | inhibition of methyltransferase activity of DOT1L (H3K79me2 western blot) ([1]; 4 days, 0.009 to 10 μM) | IC50 ([1]; Homo sapiens, EOL1, 96 h, 4 days of treatment, read-out: IC50, inhibition of methylation of H3K79 (H3K79me2)) [nM] | HOXA9 expression [2] | cell growth of EOL-1 cells ([3]; 0.003 μM-50 μM, 11 days, MLL PTD cell line) | IC50 ([3]; Homo sapiens, EOL1, 264 h, concentration-dependence curves at day 11) [nM] | FLT3 expression [4] | MEIS1 expression [5] | DOT1L gene expression [6]
CC(C)N(C[C@H]1O[C@@H](n2cnc3c(N)ncnc32)[C@H](O)[C@@H]1O)[C@H]1C[C@@H](CCc2nc3cc(C(C)(C)C)ccc3[nH]2)C1 [Compound A2, (2R,3R,4S,5R)-2-(6-amino-9H-purin-9-yl)-5-((((1r,3S)-3-(2-(5-(tert-butyl)-1H-benzo[d]imidazol-2-yl)ethyl)cyclobu-tyl)(isopropyl)a-mino)methyl)tet-rahydrofuran-3,4-diol] | dose-dependent inhibition | 27 | reduced in a dose-dependent manner | significantly inhibited | 2 | reduced in a dose-dependent manner |  | 
CC(C)N(CCCNC(=O)Nc1ccc(C(C)(C)C)cc1)CC1O[C@@H](n2ccc3c(N)ncnc32)[C@H](O)[C@@H]1O (stereo partly shown) [Compound T] |  |  | reduced in a dosage-dependent manner |  |  | reduced in a dosage-dependent manner | reduced in a dosage-dependent manner | not reduced

From patent US20200113923A1, “DOT1L INHIBITORS FOR USE IN THE TREATMENT OF LEUKEMIA” (Epizyme, Inc., priority 2012, published 2020)
